Source: US5968926A, “Antipsychotic method” (Novo Nordisk A/S, priority 1995, dated 1999)
Where a name gives a salt, the structure may show the parent alone.

System: conditioned avoidance responding
Assay: Conditioned avoidance behavior in rats
Type: in vivo, rat
Details: 3.0 mg/kg s.c. 30 min before session, 50 trials
Excerpt: In a conditioned avoidance test, animals learn to respond during a conditioned stimulus in order to avoid mild shock presentation. A response during the conditioned stimulus is termed an avoidance respone, a response during shock is termed an escape response; a response failure is when the animal fails to respond during either the conditioned stimlus or the shock presentation and is indicative of motor impairment. […] Antipsychotic drugs decrease the percentage of avoidance responses without interfering with the ability of the animal to respond since the animals do emit escape responses. The percentage of response failures is considered a measure of motor impairment.
Rats were required to press a response lever in an experimental chamber in order to avoid or escape foot-shock. Each experimental session consisted of 50 trials. During each trial, the chamber was illuminated and a tone presented for a maximum of 10 sec. A response during the tone immediately terminated the tone and the houselight, ending the trial. In the absence of a response during the tone alone, tone+foot-shock (2.0 mA) was presented for a maximum of 10 sec. A response during shock presentation immediately terminated the shock, the tone and the houselight, ending the trial.
For drug screening, a dose of 3.0 mg/kg was administered s.c. 30 min before the start of the experimental session.

Point of comparison: `CSc1nsnc1[C@H]1CN2CCC[C@H]1C2` (relative stereo) [Compound 74, Exo-6-(3-methylthio-1,2,5-thiadiazol-4-yl)-1-azabicyclo[3.2.1]octane oxalate], “Conditioned Avoidance % Avoidance Responses” value 22%. Against it:
- CCCCSc1nsnc1C1CN2CCC1CC2.O=C(O)C(O)C(O)C(=O)O (single isomer, unassigned) [Compound 56, (+) 3-(3-Butylthio-1,2,5-thiadiazol-4-yl)-1-azabicyclo (2.2.2]octane (-) D-tartrate] — lower, 6%
- O=C(O)/C=C/C(=O)O.c1csc(CCCSc2nsnc2C2CN3CCC2CC3)c1 (centres unmarked) [Compound 104, 3-(3-(3-(2-Thienyl)propylthio)-1,2,5-thiadiazol-4-yl)-1-azabicyclo[2.2.2]octane fumarate] — higher, 24%
- N#CCSc1nsnc1C1CN2CCC1CC2.O=C(O)C(=O)O (centres unmarked) [Compound 103, 3-(3-Cyanomethylthio-1,2,5-thiadiazol-4-yl)-1-azabicyclo[2.2.2]octane oxalate] — higher, 51%
- CCCCCCOc1nsnc1C1CN2CCC1CC2.O=C(O)/C=C/C(=O)O (centres unmarked) [Compound 11, 3-(3-Hexyloxy-1,2,5-thiadiazol-4-yl)-1-azabicyclo[2.2.2]octane fumarate] — lower, 11%
- CCOc1nsnc1[C@H]1CN2CCC[C@H]1C2 (relative stereo) [Compound 19, Exo-6-(3-ethoxy-1,2,5-thiadiazol-4-yl)-1-azabicyclo[3.2.1]octane oxalate] — higher, 73%
- CCCSc1nsnc1[C@H]1CN2CCC[C@H]1C2 (relative stereo) [Compound 58, Exo-6-(3-propylthio-1,2,5-thiadiazol-4-yl)-1-azabicyclo[3.2.1]octane oxalate] — higher, 41%
- CCSc1nsnc1C1CN2CCC1CC2.O=C(O)C(=O)O (centres unmarked) [Compound 52, 3-(3-Ethylthio-1,2,5-thiadiazol-4-yl)-1-azabicyclo[2.2.2]octane oxalate] — higher, 63%
- CCCCSc1nsnc1[C@H]1CN2CCC[C@H]1C2 (relative stereo) [Compound 30, Exo-6-(3-butylthio-1,2,5-thiadiazol-4-yl)-1-azabicyclo[3.2.1]octane oxalate] — higher, 32%
- CCCCOc1nsnc1[C@H]1CN2CCC[C@H]1C2 (relative stereo) [Compound 120, Exo-6-(3-butoxy-1,2,5-thiadiazol-4-yl)-1-azabicyclo[3.2.1]octane oxalate] — higher, 27%
- CCSc1nsnc1[C@H]1CN2CCC[C@H]1C2 (relative stereo) [Compound 32, Exo-6-(3-ethylthio-1,2,5-thiadiazol-4-yl)-1-azabicyclo[3.2.1]octane oxalate] — higher, 46%
- CCCOc1nsnc1[C@H]1CN2CCC[C@H]1C2 (relative stereo) [Compound 119, Exo-6-(3-propoxy-1,2,5-thiadiazol-4-yl)-1-azabicyclo[3.2.1]octane oxalate] — higher, 29%
- CCCCSc1nsnc1C1CN2CCC1CC2.O=C(O)/C=C/C(=O)O (centres unmarked) [Compound 13, 3-(3-Butylthio-1,2,5-thiadiazol-4-yl)-1-azabicyclo[2.2.2]octane fumarate] — lower, 18%
- Cc1nnc(SCCCCSc2nsnc2C2CN3CCC2CC3)s1 (centres unmarked) [Compound 107, oxalate] — higher, 52%
- CSc1nsnc1C1CN2CCC1CC2.O=C(O)C(=O)O (centres unmarked) [Compound 131, 3-(3-Methylthio-1,2,5-thiadiazol-4-yl)-1-azabicyclo[2.2.2]octane oxalate] — higher, 53%
- N#Cc1ccc(CSc2nsnc2[C@H]2CN3CCC[C@H]2C3)cc1 (relative stereo) [Compound 82, Exo-6-(3-(4-cyanobenzylthio)-1,2,5-thiadiazol-4-yl)-1-azabicyclo[3.2.1]octane oxalate] — higher, 24%
- O=C(O)/C=C/C(=O)O.c1ccc(OCCSc2nsnc2C2CN3CCC2CC3)cc1 (centres unmarked) [Compound 102, 3-(3-(2-Phenoxyethylthio)-1,2,5-thiadiazol-4-yl)-1-azabicyclo[2.2.2) octane fumarate] — lower, 3%
- Cn1nnnc1SCCCCSc1nsnc1C1CN2CCC1CC2 (centres unmarked) [Compound 106, oxalate] — higher, 55%
- CCOc1nsnc1C1CN2CCC1CC2.O=C(O)/C=C/C(=O)O (centres unmarked) [Compound 9, 3-(3-Ethoxy-1,2,5-thiadiazol-4-yl)-1-azabicyclo[2.2.2]octane fumarate] — higher, 65%
- CCCCOc1nsnc1C1CN2CCC1CC2.O=C(O)C(=O)O (centres unmarked) [Compound 46, 3-(3-Butoxy-1,2,5-thiadiazol-4-yl)-1-azabicyclo[2.2.2]octane oxalate] — higher, 30%
- CCCSc1nsnc1C1CN2CCC1CC2.O=C(O)C(=O)O (centres unmarked) [Compound 53, 3-(3-Propylthio-1,2,5-thiadiazol-4-yl)-1-azabicyclo[2.2.2]octane oxalate] — higher, 41%

Same assay, conditions: 3.0 mg/kg s.c. 30 min before session, 50 trials, 3 mg/kg

Point of comparison: `CCCSc1nsnc1C1CN2CCCC1C2` (single isomer, unassigned; (-)) [Compound 114, (-)-Exo-6-(3-propylthio-1,2,5-thiadiazol-4-yl)-1-azabicyclo[3.2.1]octane (-) D-tartrate], “Conditioned Avoidance % Avoidance Responses” value 39%. Against it:
- CCCSc1nsnc1C1CN2CCCC1C2 (single isomer, unassigned; (+)) [Compound 113, (+)-Exo-6-(3-propylthio-1,2,5-thiadiazol-4-yl)-1-azabicyclo[3.2.1]octane (+) L-tartrate] — lower, 19%
- CCCCSc1nsnc1C1CN2CCCC1C2 (single isomer, unassigned) [Compound 111, (-)-Exo-6-(3-butylthio-1,2,5-thiadiazol-4-yl)-1-azabicyclo[3.2.1]octane (+) L-tartrate] — lower, 8%
- CCCCSc1nsnc1C1CN2CCCC1C2 (single isomer, unassigned) [Compound 112, (+)-Exo-6-(3-butylthio-1,2,5-thiadiazol-4-yl)-1-azabicyclo[3.2.1]octane (-) D-tartrate] — lower, 2%

System: not given
Assay: not given
Details: blood samples of treated patients, 17 patients, trial terminated; cited from earlier work

In the case of `Cc1cc2c(s1)Nc1ccc(F)cc1N=C2N1CCN(C)CC1` [flumezapine, 7-fluoro-2-methyl-10-(4-methyl-1-piperazinyl)-4H-thieno[2,3-b][1,5]-benzodiazepine], the “enzyme levels: creatinine phosphokinase (CPK), SGOT, SGPT” value is listed as “in substantial excess of normal values”.
